According to patent publication US8283361B2 (AstraZeneca AB, priority 2008, dated 2012):

The compounds below were run against S. aureus GyrB ATPase (Staphylococcus aureus, UniProt P0A0K8) (assay: biochemical). Conditions: compound at 1 μM; one value per test if tested more than once; 1 µM.
Procedure, shortened: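 IC50 values derive from 10-point titrations of compound (in DMSO). Phosphate formed from 250 μM ATP was quantified by acidic molybdate/malachite green after quenching.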

S. aureus GyrB ATPase, sequence (P0A0K8 whole entry): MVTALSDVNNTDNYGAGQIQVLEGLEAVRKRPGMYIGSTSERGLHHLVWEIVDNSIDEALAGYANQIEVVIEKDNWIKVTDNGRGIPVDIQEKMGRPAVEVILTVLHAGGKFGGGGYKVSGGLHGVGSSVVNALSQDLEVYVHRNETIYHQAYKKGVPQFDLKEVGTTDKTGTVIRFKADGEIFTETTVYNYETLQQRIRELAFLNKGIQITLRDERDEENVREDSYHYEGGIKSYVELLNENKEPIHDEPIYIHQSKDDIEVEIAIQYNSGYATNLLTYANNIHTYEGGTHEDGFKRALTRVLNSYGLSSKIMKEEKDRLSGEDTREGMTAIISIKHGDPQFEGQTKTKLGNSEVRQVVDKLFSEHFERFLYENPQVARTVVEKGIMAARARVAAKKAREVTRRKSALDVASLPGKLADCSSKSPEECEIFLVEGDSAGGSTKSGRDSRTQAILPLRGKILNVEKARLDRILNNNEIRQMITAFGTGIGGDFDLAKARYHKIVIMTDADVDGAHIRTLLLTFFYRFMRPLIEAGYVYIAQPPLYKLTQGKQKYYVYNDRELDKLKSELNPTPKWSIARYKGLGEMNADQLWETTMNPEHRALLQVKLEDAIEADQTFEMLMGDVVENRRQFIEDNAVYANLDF
S. aureus GyrB ATPase, sequence (P0AES4 whole entry, further chain): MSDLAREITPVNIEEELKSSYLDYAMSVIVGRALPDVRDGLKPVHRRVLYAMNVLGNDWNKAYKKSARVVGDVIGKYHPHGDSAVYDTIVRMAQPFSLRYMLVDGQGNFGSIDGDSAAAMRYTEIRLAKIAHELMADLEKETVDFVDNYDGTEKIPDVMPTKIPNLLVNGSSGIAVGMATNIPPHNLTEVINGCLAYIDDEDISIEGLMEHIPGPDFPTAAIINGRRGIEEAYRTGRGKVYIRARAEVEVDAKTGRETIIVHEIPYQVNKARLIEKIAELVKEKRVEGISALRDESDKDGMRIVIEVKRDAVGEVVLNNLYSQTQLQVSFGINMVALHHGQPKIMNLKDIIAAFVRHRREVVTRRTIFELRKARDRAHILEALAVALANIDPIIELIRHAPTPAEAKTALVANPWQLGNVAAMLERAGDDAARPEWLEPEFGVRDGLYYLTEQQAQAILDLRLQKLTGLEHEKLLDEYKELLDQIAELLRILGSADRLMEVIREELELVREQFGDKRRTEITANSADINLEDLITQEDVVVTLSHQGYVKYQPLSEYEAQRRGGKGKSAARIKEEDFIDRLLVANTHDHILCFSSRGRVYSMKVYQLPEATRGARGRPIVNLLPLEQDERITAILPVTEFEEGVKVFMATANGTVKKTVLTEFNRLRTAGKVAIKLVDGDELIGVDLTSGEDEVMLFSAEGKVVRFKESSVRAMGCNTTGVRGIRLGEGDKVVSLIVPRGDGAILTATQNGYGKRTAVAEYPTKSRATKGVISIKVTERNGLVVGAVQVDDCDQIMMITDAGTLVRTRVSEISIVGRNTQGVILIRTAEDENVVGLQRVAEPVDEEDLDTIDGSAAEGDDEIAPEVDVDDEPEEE

SMILES	% Inhibition of S. aureus GyrB ATPase
CCCNC(=O)Nc1cc(-c2nc(C(F)(F)F)cs2)c(-c2ccc3c(c2)c(=O)c(C(=O)O)cn3CCN(C)C)cn1 [Example 152, 1-(2-(dimethylamino)ethyl)-4-oxo-6-(6-(3-propylureido)-4-(4-(trifluoromethyl)thiazol-2-yl)pyridin-3-yl)-1,4-dihydroquinoline-3-carboxylic acid]	106%

Same assay, conditions: compound at 1 μM; one value per test if tested more than once; read-out: % Inhibition of S. aureus GyrB ATPase

SMILES	inhibition at 1 µM
CCNC(=O)Nc1cc(-c2nc(C(F)(F)F)cs2)c(-c2ccc3c(c2)c(=O)c(C(=O)N2CCNCC2)cn3C(COC)COC)cn1 [Example 140, 1-{5-[1-(1,3-dimethoxypropan-2-yl)-4-oxo-3-(piperazin-1-ylcarbonyl)-1,4-dihydroquinolin-6-yl]-4-[4-(trifluoromethyl)-1,3-thiazol-2-yl]pyridin-2-yl}-3-ethylurea]	95%
CCNC(=O)Nc1cc(-c2nc(C(F)(F)F)cs2)c(-c2ccc3c(c2)c(=O)c(C(=O)N2CCN(CCO)CC2)cn3C(COC)COC)cn1 [Example 141, 1-{5-[1-(1,3-dimethoxypropan-2-yl)-3-{[4-(2-hydroxyethyl)piperazin-1-yl]carbonyl}-4-oxo-1,4-dihydroquinolin-6-yl]-4-[4-(trifluoromethyl)-1,3-thiazol-2-yl]pyridin-2-yl}-3-ethylurea]	97%
CCNC(=O)Nc1cc(-c2nc(C(F)(F)F)cs2)c(-c2ccc3c(c2)c(=O)c(C(=O)N2CCN(S(=O)(=O)N(C)C)CC2)cn3C(COC)COC)cn1 [Example 142, 4-{[1-(1,3-dimethoxypropan-2-yl)-6-{6-[(ethylcarbamoyl)amino]-4-[4-(trifluoromethyl)-1,3-thiazol-2-yl]pyridin-3-yl}-4-oxo-1,4-dihydroquinolin-3-yl]carbonyl}-N,N-dimethylpiperazine-1-sulfonamide]	97%
CCNC(=O)Nc1cc(-c2nc(C(F)(F)F)cs2)c(-c2ccc3c(c2)c(=O)c(C(=O)N2CCN(C)CC2)cn3C(COC)COC)cn1 [Example 143, 1-(5-{1-(1,3-dimethoxypropan-2-yl)-3-[(4-methylpiperazin-1-yl)carbonyl]-4-oxo-1,4-dihydroquinolin-6-yl}-4-[4-(trifluoromethyl)-1,3-thiazol-2-yl]pyridin-2-yl)-3-ethylurea]	95%
CCNC(=O)Nc1cc(-c2nc(C(F)(F)F)cs2)c(-c2ccc3c(c2)c(=O)c(C(=O)N2CCN(C(C)=O)CC2)cn3C(COC)COC)cn1 [Example 144, 1-(5-{3-[(4-acetylpiperazin-1-yl)carbonyl]-1-(1,3-dimethoxypropan-2-yl)-4-oxo-1,4-dihydroquinolin-6-yl}-4-[4-(trifluoromethyl)-1,3-thiazol-2-yl]pyridin-2-yl)-3-ethylurea]	94%
CCNC(=O)Nc1cc(-c2nc(C(F)(F)F)cs2)c(-c2ccc3c(c2)c(=O)c(C(=O)N2CCN(S(C)(=O)=O)CC2)cn3C(COC)COC)cn1 [Example 145, 1-{5-[1-(1,3-dimethoxypropan-2-yl)-3-{[4-(methylsulfonyl)piperazin-1-yl]carbonyl}-4-oxo-1,4-dihydroquinolin-6-yl]-4-[4-(trifluoromethyl)-1,3-thiazol-2-yl]pyridin-2-yl}-3-ethylurea]	92%
CCNC(=O)Nc1cc(-c2nc(C(F)(F)F)cs2)c(-c2ccc3c(c2)c(=O)c(C(=O)NCCCO)cn3C2CC2)cn1 [Example 147, 1-cyclopropyl-6-(6-(3-ethylureido)-4-(4-(trifluoromethyl)thiazol-2-yl)pyridin-3-yl)-N-(3-hydroxypropyl)-4-oxo-1,4-dihydroquinoline-3-carboxamide]	102%
CCNC(=O)Nc1cc(-c2nc(C(F)(F)F)cs2)c(-c2ccc3c(c2)c(=O)c(C(=O)NCCO)cn3C(COC)COC)cn1 [Example 148, 1-(1,3-dimethoxypropan-2-yl)-6-(6-(3-ethylureido)-4-(4-(trifluoromethyl)thiazol-2-yl)pyridin-3-yl)-N-(2-hydroxyethyl)-4-oxo-1,4-dihydroquinoline-3-carboxamide]	93%
CCNC(=O)Nc1cc(-c2nc(C(F)(F)F)cs2)c(-c2ccc3c(c2)c(=O)c(C(=O)NCCCO)cn3C(COC)COC)cn1 [Example 149, 1-(1,3-dimethoxypropan-2-yl)-6-(6-(3-ethylureido)-4-(4-(trifluoromethyl)thiazol-2-yl)pyridin-3-yl)-N-(3-hydroxypropyl)-4-oxo-1,4-dihydroquinoline-3-carboxamide]	93%
CCCNC(=O)Nc1cc(-c2nc(C(F)(F)F)cs2)c(-c2ccc3c(c2)c(=O)c(C(=O)O)cn3CCN(C)C)cn1 [Example 152, 1-(2-(dimethylamino)ethyl)-4-oxo-6-(6-(3-propylureido)-4-(4-(trifluoromethyl)thiazol-2-yl)pyridin-3-yl)-1,4-dihydroquinoline-3-carboxylic acid]	95%
CCCNC(=O)Nc1cc(-c2nc(C(F)(F)F)cs2)c(-c2ccc3c(c2)c(=O)c(C(=O)O)cn3C2CN(C)C2)cn1 [Example 153, 1-(1-methylazetidin-3-yl)-4-oxo-6-(6-(3-propylureido)-4-(4-(trifluoromethyl)thiazol-2-yl)pyridin-3-yl)-1,4-dihydroquinoline-3-carboxylic acid]	105%
CCCNC(=O)Nc1cc(-c2nc(C(F)(F)F)cs2)c(-c2ccc3c(c2)c(=O)c(C(=O)N2CCN(S(=O)(=O)N(C)C)CC2)cn3CCN(C)C)cn1 [Example 154, 4-(1-(2-(dimethylamino)ethyl)-4-oxo-6-(6-(3-propylureido)-4-(4-(trifluoromethyl)thiazol-2-yl)pyridin-3-yl)-1,4-dihydroquinoline-3-carbonyl)-N,N-dimethylpiperazine-1-sulfonamide]	107%
CCNC(=O)Nc1cc(-c2nc(C(F)(F)F)cs2)c(-c2ccc3c(c2)c(=O)c(C(=O)N2CCN(C)CC2)cn3CCN(C)C)cn1 [Example 155, 1-(5-(1-(2-(dimethylamino)ethyl)-3-(4-methylpiperazine-1-carbonyl)-4-oxo-1,4-dihydroquinolin-6-yl)-4-(4-(trifluoromethyl)thiazol-2-yl)pyridin-2-yl)-3-ethylurea]	94%
CCCNC(=O)Nc1cc(-c2nc(C(F)(F)F)cs2)c(-c2ccc3c(c2)c(=O)c(C(=O)N2CCN(C)CC2)cn3CCN(C)C)cn1 [Example 156, 1-(5-(1-(2-(dimethylamino)ethyl)-3-(4-methylpiperazine-1-carbonyl)-4-oxo-1,4-dihydroquinolin-6-yl)-4-(4-(trifluoromethyl)thiazol-2-yl)pyridin-2-yl)-3-propylurea]	105%
CCCNC(=O)Nc1cc(-c2nc(C(F)(F)F)cs2)c(-c2ccc3c(c2)c(=O)c(C(=O)N2CCN(S(C)(=O)=O)CC2)cn3CCN(C)C)cn1 [Example 157, 1-(5-(1-(2-(dimethylamino)ethyl)-3-(4-(methylsulfonyl)piperazine-1-carbonyl)-4-oxo-1,4-dihydroquinolin-6-yl)-4-(4-(trifluoromethyl)thiazol-2-yl)pyridin-2-yl)-3-propylurea]	103%
CCNC(=O)Nc1cc(-c2nc(C(F)(F)F)cs2)c(-c2ccc3c(c2)c(=O)c(C(=O)N2CCNCC2)cn3CCN(C)C)cn1 [Example 158, 1-(5-(1-(2-(dimethylamino)ethyl)-4-oxo-3-(piperazine-1-carbonyl)-1,4-dihydroquinolin-6-yl)-4-(4-(trifluoromethyl)thiazol-2-yl)pyridin-2-yl)-3-ethylurea]	106%
CCNC(=O)Nc1cc(-c2nc(C(F)(F)F)cs2)c(-c2ccc3c(c2)c(=O)c(C(=O)N2CCN(S(=O)(=O)N(C)C)CC2)cn3CCN(C)C)cn1 [Example 159, 4-(1-(2-(dimethylamino)ethyl)-6-(6-(3-ethylureido)-4-(4-(trifluoromethyl)thiazol-2-yl)pyridin-3-yl)-4-oxo-1,4-dihydroquinoline-3-carbonyl)-N,N-dimethylpiperazine-1-sulfonamide]	105%
CCCNC(=O)Nc1cc(-c2nc(C(F)(F)F)cs2)c(-c2ccc3c(c2)c(=O)c(C(=O)N2CCN(C(C)=O)CC2)cn3CCN(C)C)cn1 [Example 160, 1-(5-(3-(4-acetylpiperazine-1-carbonyl)-1-(2-(dimethylamino)ethyl)-4-oxo-1,4-dihydroquinolin-6-yl)-4-(4-(trifluoromethyl)thiazol-2-yl)pyridin-2-yl)-3-propylurea]	103%
CCCNC(=O)Nc1cc(-c2nc(C(F)(F)F)cs2)c(-c2ccc3c(c2)c(=O)c(C(=O)N2CCNCC2)cn3CCN(C)C)cn1 [Example 161, 1-(5-(1-(2-(dimethylamino)ethyl)-4-oxo-3-(piperazine-1-carbonyl)-1,4-dihydroquinolin-6-yl)-4-(4-(trifluoromethyl)thiazol-2-yl)pyridin-2-yl)-3-propylurea]	101%
CCNC(=O)Nc1cc(-c2nc(C(F)(F)F)cs2)c(-c2ccc3c(c2)c(=O)c(C(=O)N2CCN(C(C)=O)CC2)cn3CCN(C)C)cn1 [Example 162, 1-(5-(3-(4-acetylpiperazine-1-carbonyl)-1-(2-(dimethylamino)ethyl)-4-oxo-1,4-dihydroquinolin-6-yl)-4-(4-(trifluoromethyl)thiazol-2-yl)pyridin-2-yl)-3-ethylurea]	106%
CCNC(=O)Nc1cc(-c2nc(C(F)(F)F)cs2)c(-c2ccc3c(c2)c(=O)c(C(=O)N2CCN(S(C)(=O)=O)CC2)cn3C2CN(C)C2)cn1 [Example 163, 1-ethyl-3-(5-(1-(1-methylazetidin-3-yl)-3-(4-(methylsulfonyl)piperazine-1-carbonyl)-4-oxo-1,4-dihydroquinolin-6-yl)-4-(4-(trifluoromethyl)thiazol-2-yl)pyridin-2-yl)urea]	106%
CCCNC(=O)Nc1cc(-c2nc(C(F)(F)F)cs2)c(-c2ccc3c(c2)c(=O)c(C(=O)N2CCN(S(=O)(=O)N(C)C)CC2)cn3C2CN(C)C2)cn1 [Example 164, N,N-dimethyl-4-(1-(1-methylazetidin-3-yl)-4-oxo-6-(6-(3-propylureido)-4-(4-(trifluoromethyl)thiazol-2-yl)pyridin-3-yl)-1,4-dihydroquinoline-3-carbonyl)piperazine-1-sulfonamide]	107%
CCNC(=O)Nc1cc(-c2nc(C(F)(F)F)cs2)c(-c2ccc3c(c2)c(=O)c(C(=O)N2CCN(S(=O)(=O)N(C)C)CC2)cn3C2CN(C)C2)cn1 [Example 165, 4-(6-(6-(3-ethylureido)-4-(4-(trifluoromethyl)thiazol-2-yl)pyridin-3-yl)-1-(1-methylazetidin-3-yl)-4-oxo-1,4-dihydroquinoline-3-carbonyl)-N,N-dimethylpiperazine-1-sulfonamide]	109%
